ChEMBL document CHEMBL4052776, “Discovery of 3-morpholino-imidazole[1,5-a]pyrazine BTK inhibitors for rheumatoid arthritis” (Bioorg Med Chem Lett, 2017)

Assays:
[1] = molecular target: Tyrosine-protein kinase BTK (Homo sapiens, UniProt Q06187); experiment: Inhibition of BTK in human PBMC assessed as reduction in anti-IgM-induced MIP1beta
Homo sapiens [2] = species on record: Homo sapiens; experiment: Selectivity ratio of IC50 for BLK (unknown origin) to IC50 for BTK (unknown origin)
[3] = molecular target: T1, Cytoplasmic tyrosine-protein kinase BMX (Homo sapiens, UniProt P51813); experiment: Inhibition of BMX (unknown origin)
T1 sequence (P51813 whole entry): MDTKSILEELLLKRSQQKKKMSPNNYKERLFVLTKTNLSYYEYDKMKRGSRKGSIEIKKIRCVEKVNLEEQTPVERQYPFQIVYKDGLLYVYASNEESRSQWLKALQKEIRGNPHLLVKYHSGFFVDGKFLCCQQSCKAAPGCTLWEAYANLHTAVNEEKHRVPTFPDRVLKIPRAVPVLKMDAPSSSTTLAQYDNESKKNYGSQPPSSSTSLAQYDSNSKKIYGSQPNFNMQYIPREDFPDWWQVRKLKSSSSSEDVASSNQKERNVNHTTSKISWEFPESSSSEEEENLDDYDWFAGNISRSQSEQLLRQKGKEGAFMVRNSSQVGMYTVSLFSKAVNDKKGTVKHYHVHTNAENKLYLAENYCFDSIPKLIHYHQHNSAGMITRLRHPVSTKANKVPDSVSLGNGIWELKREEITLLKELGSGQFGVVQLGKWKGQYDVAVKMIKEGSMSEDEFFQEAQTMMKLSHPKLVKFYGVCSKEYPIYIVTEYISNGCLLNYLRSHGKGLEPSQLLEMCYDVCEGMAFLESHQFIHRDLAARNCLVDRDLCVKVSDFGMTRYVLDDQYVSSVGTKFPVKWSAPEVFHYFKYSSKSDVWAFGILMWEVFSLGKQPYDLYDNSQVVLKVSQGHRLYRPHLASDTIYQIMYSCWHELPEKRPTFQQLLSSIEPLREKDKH

Homo sapiens [4] = species on record: Homo sapiens; experiment: Selectivity ratio of IC50 for BMX (unknown origin) to IC50 for BTK (unknown origin)
[5] = molecular target: Tyrosine-protein kinase CSK (Homo sapiens, UniProt P41240); experiment: Inhibition of CSK (unknown origin)
[6] = molecular target: Receptor tyrosine-protein kinase erbB-4 (Homo sapiens, UniProt Q15303); experiment: Inhibition of ERBB4 (unknown origin)
Homo sapiens [7] = species on record: Homo sapiens; experiment: Selectivity ratio of IC50 for ERBB4 (unknown origin) to IC50 for BTK (unknown origin)
[8] = molecular target: Tyrosine-protein kinase Fgr (Homo sapiens, UniProt P09769); experiment: Inhibition of FGR (unknown origin)
[9] = molecular target: Tyrosine-protein kinase FRK (Homo sapiens, UniProt P42685); experiment: Inhibition of FRK (unknown origin)
Homo sapiens [10] = species on record: Homo sapiens; experiment: Selectivity ratio of IC50 for FRK (unknown origin) to IC50 for BTK (unknown origin)
[11] = molecular target: Tyrosine-protein kinase Fyn (Homo sapiens, UniProt P06241); experiment: Inhibition of FYN (unknown origin)
Homo sapiens [12] = species on record: Homo sapiens; experiment: Selectivity ratio of IC50 for FYN (unknown origin) to IC50 for BTK (unknown origin)
[13] = molecular target: Tyrosine-protein kinase Lck (Homo sapiens, UniProt P06239); experiment: Inhibition of LCK (unknown origin)
Homo sapiens [14] = species on record: Homo sapiens; experiment: Selectivity ratio of IC50 for LCK (unknown origin) to IC50 for BTK (unknown origin)
[15] = molecular target: Tyrosine-protein kinase Lyn (Homo sapiens, UniProt P07948); experiment: Inhibition of LYNB (unknown origin)
Homo sapiens [16] = species on record: Homo sapiens; experiment: Selectivity ratio of IC50 for LYNB (unknown origin) to IC50 for BTK (unknown origin)
[17] = molecular target: Protein-tyrosine kinase 6 (Homo sapiens, UniProt Q13882); experiment: Inhibition of PTK6 (unknown origin)
[18] = molecular target: Proto-oncogene tyrosine-protein kinase Src (Homo sapiens, UniProt P12931); experiment: Inhibition of SRC (unknown origin)
[19] = molecular target: Tyrosine-protein kinase Srms (Homo sapiens, UniProt Q9H3Y6); experiment: Inhibition of SRMS (unknown origin)
Homo sapiens [20] = species on record: Homo sapiens; experiment: Selectivity ratio of IC50 for SRMS (unknown origin) to IC50 for BTK (unknown origin)
[21] = molecular target: T2, Tyrosine-protein kinase Tec (Homo sapiens, UniProt P42680); experiment: Inhibition of TEC (unknown origin)
T2 sequence (P42680 whole entry): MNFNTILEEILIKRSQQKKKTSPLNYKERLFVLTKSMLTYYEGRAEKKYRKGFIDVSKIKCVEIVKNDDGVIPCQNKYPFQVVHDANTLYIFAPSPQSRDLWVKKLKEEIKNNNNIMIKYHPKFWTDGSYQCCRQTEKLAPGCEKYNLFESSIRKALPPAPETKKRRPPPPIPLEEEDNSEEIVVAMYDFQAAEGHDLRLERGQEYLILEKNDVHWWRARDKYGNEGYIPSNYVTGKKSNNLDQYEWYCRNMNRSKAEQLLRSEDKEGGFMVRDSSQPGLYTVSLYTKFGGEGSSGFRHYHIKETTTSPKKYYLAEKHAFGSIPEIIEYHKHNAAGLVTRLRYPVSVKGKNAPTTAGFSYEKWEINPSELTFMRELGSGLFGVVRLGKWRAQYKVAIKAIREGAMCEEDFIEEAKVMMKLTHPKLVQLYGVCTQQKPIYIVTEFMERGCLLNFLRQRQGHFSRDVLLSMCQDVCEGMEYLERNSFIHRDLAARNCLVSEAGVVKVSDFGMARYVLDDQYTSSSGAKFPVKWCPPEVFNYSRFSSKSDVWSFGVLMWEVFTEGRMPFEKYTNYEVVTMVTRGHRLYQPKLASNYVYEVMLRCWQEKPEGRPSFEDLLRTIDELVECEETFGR

[22] = molecular target: T3, Tyrosine-protein kinase TXK (Homo sapiens, UniProt P42681); experiment: Inhibition of TXK (unknown origin)
T3 sequence (P42681 whole entry): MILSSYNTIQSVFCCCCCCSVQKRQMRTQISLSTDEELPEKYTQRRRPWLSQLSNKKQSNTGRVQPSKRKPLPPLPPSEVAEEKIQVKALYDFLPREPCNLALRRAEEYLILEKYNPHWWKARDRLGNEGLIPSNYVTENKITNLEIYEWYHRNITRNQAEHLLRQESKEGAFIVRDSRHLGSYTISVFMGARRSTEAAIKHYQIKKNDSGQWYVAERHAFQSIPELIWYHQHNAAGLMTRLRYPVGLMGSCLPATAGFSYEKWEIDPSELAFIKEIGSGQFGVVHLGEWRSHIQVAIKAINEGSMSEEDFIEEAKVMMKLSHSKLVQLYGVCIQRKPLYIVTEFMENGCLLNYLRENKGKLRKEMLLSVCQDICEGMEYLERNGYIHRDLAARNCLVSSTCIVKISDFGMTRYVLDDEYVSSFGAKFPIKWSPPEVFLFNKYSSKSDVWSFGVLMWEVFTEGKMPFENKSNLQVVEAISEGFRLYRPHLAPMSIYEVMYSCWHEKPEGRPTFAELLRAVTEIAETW

Homo sapiens [23] = species on record: Homo sapiens; experiment: Selectivity ratio of IC50 for TXK (unknown origin) to IC50 for BTK (unknown origin)
[24] = Total clearance in dog plasma at 2 mg/kg; format: ADME, organism-based, Canis lupus familiaris
[25] = Half life in dog at 2 mg/kg; format: ADME, organism-based, Canis lupus familiaris; conditions: in vivo

Tyrosine-protein kinase Lyn, sequence (P07948 whole entry): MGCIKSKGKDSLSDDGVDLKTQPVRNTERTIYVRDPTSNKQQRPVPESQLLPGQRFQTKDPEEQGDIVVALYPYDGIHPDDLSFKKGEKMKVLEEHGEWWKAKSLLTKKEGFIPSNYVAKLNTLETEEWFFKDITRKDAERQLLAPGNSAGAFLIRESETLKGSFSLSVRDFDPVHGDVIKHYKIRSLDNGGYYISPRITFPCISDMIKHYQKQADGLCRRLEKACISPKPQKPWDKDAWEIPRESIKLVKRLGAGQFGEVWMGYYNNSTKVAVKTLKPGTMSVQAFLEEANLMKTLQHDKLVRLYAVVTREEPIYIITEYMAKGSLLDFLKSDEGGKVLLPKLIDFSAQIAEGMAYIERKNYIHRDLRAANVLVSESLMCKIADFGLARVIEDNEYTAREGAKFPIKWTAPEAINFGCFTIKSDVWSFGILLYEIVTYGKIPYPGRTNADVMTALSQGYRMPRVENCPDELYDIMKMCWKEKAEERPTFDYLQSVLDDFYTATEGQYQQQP
Tyrosine-protein kinase Lck, sequence (P06239 whole entry): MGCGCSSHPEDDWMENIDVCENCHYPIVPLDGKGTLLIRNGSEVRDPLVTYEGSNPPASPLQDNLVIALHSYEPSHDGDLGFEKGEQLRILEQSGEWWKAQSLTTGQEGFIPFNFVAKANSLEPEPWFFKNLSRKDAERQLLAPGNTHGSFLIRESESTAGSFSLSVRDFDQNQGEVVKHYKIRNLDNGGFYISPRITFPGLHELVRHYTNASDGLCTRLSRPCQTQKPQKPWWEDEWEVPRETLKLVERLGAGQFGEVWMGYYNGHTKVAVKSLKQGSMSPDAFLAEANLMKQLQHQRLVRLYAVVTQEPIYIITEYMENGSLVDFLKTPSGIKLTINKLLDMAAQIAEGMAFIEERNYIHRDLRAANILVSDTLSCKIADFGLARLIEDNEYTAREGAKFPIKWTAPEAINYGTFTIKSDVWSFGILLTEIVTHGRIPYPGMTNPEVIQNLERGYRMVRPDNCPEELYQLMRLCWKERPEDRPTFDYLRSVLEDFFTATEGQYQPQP
Proto-oncogene tyrosine-protein kinase Src, sequence (P12931 2-536 limits assumed): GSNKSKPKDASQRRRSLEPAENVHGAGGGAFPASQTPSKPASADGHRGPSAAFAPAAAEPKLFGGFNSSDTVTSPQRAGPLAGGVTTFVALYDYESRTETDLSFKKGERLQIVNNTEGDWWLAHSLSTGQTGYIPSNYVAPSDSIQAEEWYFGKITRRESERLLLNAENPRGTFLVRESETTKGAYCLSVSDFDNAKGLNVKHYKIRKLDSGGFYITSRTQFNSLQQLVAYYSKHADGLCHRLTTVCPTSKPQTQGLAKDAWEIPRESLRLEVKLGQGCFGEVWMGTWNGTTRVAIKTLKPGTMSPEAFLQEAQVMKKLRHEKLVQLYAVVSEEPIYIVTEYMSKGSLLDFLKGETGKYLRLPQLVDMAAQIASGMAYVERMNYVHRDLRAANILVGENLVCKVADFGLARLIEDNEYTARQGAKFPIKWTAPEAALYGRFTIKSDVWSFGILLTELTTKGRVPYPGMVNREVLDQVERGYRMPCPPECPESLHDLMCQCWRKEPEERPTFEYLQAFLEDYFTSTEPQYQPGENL
Tyrosine-protein kinase Srms, sequence (Q9H3Y6 whole entry): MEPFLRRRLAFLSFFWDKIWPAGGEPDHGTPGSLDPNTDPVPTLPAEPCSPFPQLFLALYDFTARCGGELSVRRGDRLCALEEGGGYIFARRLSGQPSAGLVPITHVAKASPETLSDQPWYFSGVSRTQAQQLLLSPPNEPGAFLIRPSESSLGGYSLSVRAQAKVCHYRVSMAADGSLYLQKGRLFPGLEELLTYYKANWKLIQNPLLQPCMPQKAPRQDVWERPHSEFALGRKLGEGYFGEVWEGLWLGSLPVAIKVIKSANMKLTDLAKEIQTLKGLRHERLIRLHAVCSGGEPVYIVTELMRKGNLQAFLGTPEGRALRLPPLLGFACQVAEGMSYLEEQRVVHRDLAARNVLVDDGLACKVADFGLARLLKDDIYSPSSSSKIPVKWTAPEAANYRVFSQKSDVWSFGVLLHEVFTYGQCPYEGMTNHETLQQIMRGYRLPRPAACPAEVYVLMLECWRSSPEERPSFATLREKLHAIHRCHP
Tyrosine-protein kinase Fgr, sequence (P09769 whole entry): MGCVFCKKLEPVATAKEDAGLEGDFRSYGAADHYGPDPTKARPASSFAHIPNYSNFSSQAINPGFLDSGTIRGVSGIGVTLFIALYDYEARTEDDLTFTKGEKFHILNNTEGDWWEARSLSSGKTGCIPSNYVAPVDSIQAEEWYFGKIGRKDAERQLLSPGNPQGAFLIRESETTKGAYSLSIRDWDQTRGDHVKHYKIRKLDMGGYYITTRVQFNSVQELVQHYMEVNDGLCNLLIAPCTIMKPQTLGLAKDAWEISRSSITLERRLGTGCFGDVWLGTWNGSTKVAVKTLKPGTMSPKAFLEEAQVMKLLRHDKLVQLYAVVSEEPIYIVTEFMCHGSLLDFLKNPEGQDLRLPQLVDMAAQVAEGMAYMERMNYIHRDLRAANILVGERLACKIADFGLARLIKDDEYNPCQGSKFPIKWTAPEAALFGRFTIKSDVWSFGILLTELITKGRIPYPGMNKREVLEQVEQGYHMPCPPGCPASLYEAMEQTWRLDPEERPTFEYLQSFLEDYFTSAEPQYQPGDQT
Tyrosine-protein kinase Fyn, sequence (P06241 whole entry): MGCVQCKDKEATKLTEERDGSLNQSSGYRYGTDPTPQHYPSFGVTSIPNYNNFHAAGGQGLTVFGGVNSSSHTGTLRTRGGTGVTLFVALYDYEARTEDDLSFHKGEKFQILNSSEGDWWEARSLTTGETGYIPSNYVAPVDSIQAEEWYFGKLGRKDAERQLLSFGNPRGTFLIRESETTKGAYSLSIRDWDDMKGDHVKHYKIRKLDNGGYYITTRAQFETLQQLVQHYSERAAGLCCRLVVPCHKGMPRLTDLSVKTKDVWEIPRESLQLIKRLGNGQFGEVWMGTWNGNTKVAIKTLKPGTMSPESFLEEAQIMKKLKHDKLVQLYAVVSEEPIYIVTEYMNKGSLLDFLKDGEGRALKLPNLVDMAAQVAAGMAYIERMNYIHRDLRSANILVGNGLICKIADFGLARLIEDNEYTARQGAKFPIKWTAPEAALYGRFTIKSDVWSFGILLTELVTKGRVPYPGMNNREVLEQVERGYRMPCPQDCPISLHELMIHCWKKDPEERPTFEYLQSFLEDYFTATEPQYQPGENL
Receptor tyrosine-protein kinase erbB-4, sequence (Q15303 whole entry): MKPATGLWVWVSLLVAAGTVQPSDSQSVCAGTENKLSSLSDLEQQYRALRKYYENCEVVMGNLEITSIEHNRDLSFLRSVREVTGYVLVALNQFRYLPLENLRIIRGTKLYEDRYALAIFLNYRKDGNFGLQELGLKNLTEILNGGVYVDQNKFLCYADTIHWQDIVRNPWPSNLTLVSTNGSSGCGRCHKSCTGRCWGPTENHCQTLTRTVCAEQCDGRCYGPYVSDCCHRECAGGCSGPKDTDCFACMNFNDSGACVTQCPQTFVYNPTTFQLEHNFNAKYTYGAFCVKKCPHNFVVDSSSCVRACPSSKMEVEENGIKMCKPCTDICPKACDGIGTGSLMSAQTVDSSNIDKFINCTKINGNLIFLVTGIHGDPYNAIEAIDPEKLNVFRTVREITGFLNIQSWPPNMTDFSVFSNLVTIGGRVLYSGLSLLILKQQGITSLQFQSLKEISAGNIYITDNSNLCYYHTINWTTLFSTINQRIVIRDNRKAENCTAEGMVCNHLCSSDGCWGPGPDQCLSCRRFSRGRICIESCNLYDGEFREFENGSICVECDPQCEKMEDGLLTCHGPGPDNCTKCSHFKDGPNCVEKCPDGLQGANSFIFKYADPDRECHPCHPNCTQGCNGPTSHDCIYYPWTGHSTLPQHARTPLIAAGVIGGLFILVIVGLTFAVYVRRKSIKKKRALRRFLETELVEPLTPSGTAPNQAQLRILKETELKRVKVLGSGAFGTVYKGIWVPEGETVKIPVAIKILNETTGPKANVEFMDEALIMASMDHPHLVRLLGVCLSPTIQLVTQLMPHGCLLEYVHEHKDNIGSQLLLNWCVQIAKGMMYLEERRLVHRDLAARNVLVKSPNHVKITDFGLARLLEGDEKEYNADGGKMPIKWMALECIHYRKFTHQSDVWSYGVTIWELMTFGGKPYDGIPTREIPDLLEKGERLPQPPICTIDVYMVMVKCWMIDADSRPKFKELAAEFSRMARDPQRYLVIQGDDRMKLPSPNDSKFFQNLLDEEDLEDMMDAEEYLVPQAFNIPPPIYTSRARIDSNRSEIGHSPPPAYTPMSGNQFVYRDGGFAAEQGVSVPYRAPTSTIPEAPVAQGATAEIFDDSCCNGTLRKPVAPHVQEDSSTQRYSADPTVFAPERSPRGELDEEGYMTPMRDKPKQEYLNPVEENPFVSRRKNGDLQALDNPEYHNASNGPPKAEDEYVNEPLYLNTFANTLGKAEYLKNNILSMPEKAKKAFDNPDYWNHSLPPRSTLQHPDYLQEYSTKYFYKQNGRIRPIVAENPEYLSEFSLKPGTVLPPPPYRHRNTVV
Tyrosine-protein kinase FRK, sequence (P42685 whole entry): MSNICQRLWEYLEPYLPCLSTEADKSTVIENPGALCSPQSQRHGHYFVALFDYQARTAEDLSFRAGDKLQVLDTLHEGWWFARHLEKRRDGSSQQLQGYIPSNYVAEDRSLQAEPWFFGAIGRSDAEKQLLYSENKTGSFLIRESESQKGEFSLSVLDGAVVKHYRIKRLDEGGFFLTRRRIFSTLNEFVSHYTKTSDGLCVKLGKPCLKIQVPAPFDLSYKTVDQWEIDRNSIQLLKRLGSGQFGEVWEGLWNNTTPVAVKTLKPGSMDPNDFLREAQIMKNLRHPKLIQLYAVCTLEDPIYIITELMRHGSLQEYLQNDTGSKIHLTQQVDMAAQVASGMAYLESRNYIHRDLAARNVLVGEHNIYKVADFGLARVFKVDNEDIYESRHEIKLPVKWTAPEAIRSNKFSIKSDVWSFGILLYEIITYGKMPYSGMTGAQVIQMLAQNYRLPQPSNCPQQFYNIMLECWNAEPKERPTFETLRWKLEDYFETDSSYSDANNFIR

IC50 [1]: 26 nM | Ratio IC50 (Homo sapiens [2]): 636 | IC50 [3]: 703 nM | Ratio IC50 (Homo sapiens [4]): 1600 | IC50 [5]: 2150 nM | IC50 [6]: 514 nM | Ratio IC50 (Homo sapiens [7]): 1170 | IC50 [8]: 268 nM | IC50 [9]: 706 nM | Ratio IC50 (Homo sapiens [10]): 1600 | IC50 [11]: 1900 nM | Ratio IC50 (Homo sapiens [12]): 4330 | IC50 [13]: 100 nM | Ratio IC50 (Homo sapiens [14]): 227 | IC50 [15]: 1050 nM | Ratio IC50 (Homo sapiens [16]): 2380 | IC50 [17]: 173 nM | IC50 [18]: 512 nM | IC50 [19]: 103 nM | Ratio IC50 (Homo sapiens [20]): 234 | IC50 [21]: 428 nM | IC50 [22]: 464 nM | Ratio IC50 (Homo sapiens [23]): 1060 | clearance [24]: 4.8 mL/min/kg | half-life [25]: 3.9 h
SMILES: CC(C)C(=O)N1CCO[C@@H](c2nc(-c3ccc(C(=O)Nc4cc(C(F)(F)F)ccn4)cc3F)c3c(N)nccn23)C1
